Marks after values point to notes of the source that are not given here.
Key:
[1] = Potentiometric titration for pK and pI; format: physicochemical; conditions: 12 µmol peptide, room temperature
Procedure: Potentiometric titrations were performed to determine acid–base constants at room temperature using a potentiometric cell with a combined glass electrode and OMINS titration system (Metrohm). An OMNIS Digital Burette with an accuracy of ±0.01 mL was used to precisely add the titrant portions to the titrated aliquot (12 µmol) of the stock solution of the peptide compounds. The potentiometric titration results were processed mathematically to construct the titration curves and calculate the acid–base constants according to […] [16]. Isoelectric points correspond to pH points where the analyte and titrant interact in equimolar amounts (pH at the equivalence point).

[2] = test system: psychomotor seizures (6-Hz test) in mice; experiment: 6-Hz test; format: in vivo; conditions: i.c.v.; for No. of Animals Protected/No. of Animals Tested: 10 min after infusion
Procedure: (§1) The spinorphin peptide analogues (S, Dm-S, Dm-S5, and Dm-S6 or PhS, PhS5, and PhS6) were administered intracerebroventricularly (i.c.v.) (10 μL/ventricle) at doses of 0.6, 1.2, and 2.4 μg, respectively, using a 28-gauge stainless-steel needle attached to a 50-μL Hamilton® syringe as previously described. The matched group (control) was treated with a vehicle. The seizure test was performed 10 min after the i.c.v. infusion.
6-Hz test. Psychomotor seizures were induced by corneal electrodes (constant current shock generator, 32 mA, 6 Hz, 3 s) as previously described. The return to a normal position, 10 s after stimulation, was used as a criterion for protection against psychomotor seizures.

[3] = test system: generalized seizures (MES test) in mice; experiment: Maximal electroshock (MES) test; format: in vivo; conditions: i.c.v.
Procedure: as §1
The generalized seizures were induced through a stronger stimulus of 50 mA, 60 Hz, 0.2 s, applied via the same corneal electrodes, in each mouse tested. The suppression of tonic hind limb extension, replaced by a clonic seizure, was accepted as a valid criterion for the anticonvulsant potency of the drug.

[4] = test system: ivPTZ-induced myoclonic, clonic and tonic seizures in mice; experiment: Intravenous pentylenetetrazole seizure (ivPTZ) test; format: in vivo; conditions: i.c.v., doses of 0.62 µg and 1.25 µg, vs. vehicle-infused control (p < 0.05; p < 0.01)
Procedure: as §1
Intravenous Pentylenetetrazole Seizure (ivPTZ) Test The convulsant pentylenetetrazole (PTZ) (1%), dissolved in saline, was infused (0.005 mL/s) into a tail vein as previously performed. The activity to raise the threshold of ivPTZ-induced myoclonic, clonic, and tonic seizures and concentrations, quantity of infusion (mL), and mouse body weight were recorded.

[5] = test system: Escherichia coli; experiment: Antibacterial disc diffusion; format: cell-based; conditions: 20 µL of 50 mg/mL on 6 mm disc, 24 h, 37 °C
Procedure: Antibacterial activity is carried out with reference to the slightly modified method of Murray et al.. The bacteria used were Staphylococcus aureus, Escherichia coli, and Bacillus cereus. To test the antibacterial activity of 6 peptides, it is carried out as follows: taking 100 μL of spectrum bacteria ([…] bacteria) spread on the nutrient agar medium (NA). Furthermore, a paper disc (6 mm in diameter) was placed and then 20 μL of extract with a concentration of 50 mg/mL was dripped onto it. As a positive control, we used […] of chloramphenicol on the paper disc. DMSO 10% is used as a negative control according to peptide solvents. The treatment was repeated three times and then incubated for 24 h at a temperature of 37 °C. After that, an inhibitory power test measurement was carried out by measuring the diameter of the clear zone formed.

[6] = isoelectric point = pH at equivalence point, potentiometric titration
[7] = potentiometric titration with NaOH, aqueous

## H-LVVYPWT-NH2 [S, H-Leu-Val-Val-Tyr-Pro-Trp-Thr-NH2]
[1]; [6]
  pI1: 4.91
  pI2: 8.31
[1]; [7]
  pKa1: 3.15
  pKa2: 6.78
[2]; dose 0.62 µg/10 µL
  % Protection: 50%
  No. of Animals Protected/No. of Animals Tested: 3/6
[2]; dose 1.25 µg/10 µL
  % Protection: 50%
  No. of Animals Protected/No. of Animals Tested: 3/6
[2]; dose 2.5 µg/10 µL
  % Protection: 67% *
  No. of Animals Protected/No. of Animals Tested: 4/6
[3]; MES test, dose 0.62 µg/10 µL
  % Mortality: 0%
[3]; MES test, dose 1.25 µg/10 µL
  % Mortality: 30%
[3]; MES test, dose 2.5 µg/10 µL
  % Mortality: 50%
  % Protection: 50%
[3]; MES test, dose 2.5 µg/10 µL, 10 min after infusion
  No. of Animals Protected/No. of Animals Tested: 3/6
[3]; text summary of Tables 4 and 5
  Activity in the MES test (in words): inactive
[4]
  Activity against myoclonic twitching, clonic seizures and forelimb tonic seizures (ivPTZ): anticonvulsant activity
[5]
  Antibacterial activity against E. coli (inhibitory zone, in words): outperformed peptide analogues

From article PMC11206695, “Chemical Behavior and Bioactive Properties of Spinorphin Conjugated to 5,5′-Dimethyl- and 5,5′-Diphenylhydantoin Analogs” (Pharmaceuticals, 2024)
